Assay results taken from the NIST ThermoML archive (doi:10.1021/je049842u).
± gives the expanded uncertainty stated by the source.

Columns and labels:
[1] = Liquid, Closed cell (Static) method
[2] = compressibility factor (dimensionless); details: Gas, Burnett expansion method

[N-]=[N+]=O [nitrous oxide]
[1]
Details | vapor or sublimation pressure [kPa]
219.24 K | 554.7 ± 1.3
222.28 K | 626.3 ± 1.4
223.31 K | 652.8 ± 1.5
227.32 K | 759.6 ± 1.6
227.36 K | 760.6 ± 1.6
232.37 K | 912.1 ± 2.2
232.43 K | 915.4 ± 2.2
237.49 K | 1092.9 ± 2.1
242.57 K | 1294.7 ± 2.4
247.65 K | 1521.9 ± 2.8
252.73 K | 1777 ± 3.2
257.8 K | 2061.8 ± 3.6
257.87 K | 2065.4 ± 3.6
262.9 K | 2379 ± 4.2
262.95 K | 2381.8 ± 4.2
267.98 K | 2730.6 ± 4.8
268.03 K | 2734 ± 4.8
273.08 K | 3119.9 ± 5.4

[2]
Details | compressibility factor
283.5 K, 207.4 kPa | 0.9884 ± 0.001
283.5 K, 308.1 kPa | 0.9809 ± 0.001
283.5 K, 456.3 kPa | 0.9705 ± 0.001
283.5 K, 672.4 kPa | 0.9554 ± 0.001
283.5 K, 983.6 kPa | 0.9337 ± 0.0009
283.5 K, 1422.1 kPa | 0.9019 ± 0.0009
283.5 K, 2020 kPa | 0.8558 ± 0.0009
283.5 K, 2788.1 kPa | 0.7891 ± 0.0008
283.5 K, 3680.3 kPa | 0.6958 ± 0.0007
283.51 K, 170.6 kPa | 0.9917 ± 0.001
283.51 K, 253.7 kPa | 0.9848 ± 0.001
283.51 K, 376.3 kPa | 0.9761 ± 0.001
283.51 K, 556.2 kPa | 0.9636 ± 0.001
283.51 K, 816.9 kPa | 0.9456 ± 0.0009
283.51 K, 1188.9 kPa | 0.9193 ± 0.0009
283.51 K, 1705.3 kPa | 0.8809 ± 0.0009
283.51 K, 2390.6 kPa | 0.825 ± 0.0008
283.51 K, 3232.1 kPa | 0.7451 ± 0.0007
304.09 K, 194 kPa | 0.99 ± 0.001
304.09 K, 288.7 kPa | 0.9846 ± 0.001
304.09 K, 429.3 kPa | 0.9779 ± 0.001
304.09 K, 635.2 kPa | 0.9666 ± 0.001
304.09 K, 935.6 kPa | 0.9511 ± 0.001
304.09 K, 1366.6 kPa | 0.9281 ± 0.0009
304.09 K, 1968.7 kPa | 0.8932 ± 0.0009
304.09 K, 2781.3 kPa | 0.843 ± 0.0008
304.09 K, 3812.3 kPa | 0.772 ± 0.0008
304.1 K, 204 kPa | 0.9912 ± 0.001
304.1 K, 303.6 kPa | 0.9853 ± 0.001
304.1 K, 450.8 kPa | 0.9772 ± 0.001
304.1 K, 666.7 kPa | 0.9655 ± 0.001
304.1 K, 980.2 kPa | 0.9484 ± 0.001
304.1 K, 1428.5 kPa | 0.9233 ± 0.0009
304.1 K, 2054.5 kPa | 0.8871 ± 0.0009
304.1 K, 2893.4 kPa | 0.8347 ± 0.0008
304.1 K, 3945.6 kPa | 0.7604 ± 0.0008
314.41 K, 193.8 kPa | 0.9927 ± 0.001
314.41 K, 288.6 kPa | 0.9878 ± 0.001
314.41 K, 429 kPa | 0.9808 ± 0.001
314.41 K, 635.5 kPa | 0.9706 ± 0.001
314.41 K, 936.8 kPa | 0.9558 ± 0.001
314.41 K, 1371.3 kPa | 0.9347 ± 0.0009
314.41 K, 1984.4 kPa | 0.9036 ± 0.0009
314.41 K, 2822.9 kPa | 0.8587 ± 0.0009
314.41 K, 3911.4 kPa | 0.7949 ± 0.0008
314.42 K, 201.1 kPa | 0.992 ± 0.001
314.42 K, 299.5 kPa | 0.9869 ± 0.001
314.42 K, 445.1 kPa | 0.9798 ± 0.001
314.42 K, 659.3 kPa | 0.9696 ± 0.001
314.42 K, 971.5 kPa | 0.9545 ± 0.001
314.42 K, 1420.6 kPa | 0.9324 ± 0.0009
314.42 K, 2052.9 kPa | 0.9001 ± 0.0009
314.42 K, 2915.1 kPa | 0.8539 ± 0.0009
314.42 K, 4027.4 kPa | 0.7881 ± 0.0008
324.78 K, 182.9 kPa | 0.9923 ± 0.001
324.78 K, 272.8 kPa | 0.9888 ± 0.001
324.78 K, 406.1 kPa | 0.9831 ± 0.001
324.78 K, 602.6 kPa | 0.9746 ± 0.001
324.78 K, 891.4 kPa | 0.9631 ± 0.001
324.78 K, 1309.1 kPa | 0.9449 ± 0.0009
324.78 K, 1904.7 kPa | 0.9185 ± 0.0009
324.78 K, 2731.6 kPa | 0.88 ± 0.0009
324.78 K, 3833.8 kPa | 0.8251 ± 0.0008
324.79 K, 183.9 kPa | 0.9933 ± 0.001
324.79 K, 274.1 kPa | 0.9891 ± 0.001
324.79 K, 407.9 kPa | 0.9833 ± 0.001
324.79 K, 605.3 kPa | 0.9748 ± 0.001
324.79 K, 894.5 kPa | 0.9623 ± 0.001
324.79 K, 1313.6 kPa | 0.9441 ± 0.0009
324.79 K, 1910.8 kPa | 0.9174 ± 0.0009
324.79 K, 2740 kPa | 0.8789 ± 0.0009
324.79 K, 3845.5 kPa | 0.824 ± 0.0008
335.16 K, 175.4 kPa | 0.9949 ± 0.001
335.16 K, 261.7 kPa | 0.9913 ± 0.001
335.16 K, 389.8 kPa | 0.9864 ± 0.001
335.16 K, 579.2 kPa | 0.9792 ± 0.001
335.16 K, 857.6 kPa | 0.9686 ± 0.001
335.16 K, 1263.2 kPa | 0.9531 ± 0.001
335.16 K, 1845.9 kPa | 0.9304 ± 0.0009
335.16 K, 2665.8 kPa | 0.8977 ± 0.0009
335.16 K, 3777.8 kPa | 0.8498 ± 0.0009
335.18 K, 188.5 kPa | 0.9942 ± 0.001
335.18 K, 281 kPa | 0.9902 ± 0.001
335.18 K, 418.3 kPa | 0.9847 ± 0.001
335.18 K, 621.3 kPa | 0.9772 ± 0.001
335.18 K, 919.2 kPa | 0.9658 ± 0.001
335.18 K, 1352.3 kPa | 0.9492 ± 0.001
335.18 K, 1972.3 kPa | 0.9248 ± 0.0009
335.18 K, 2839.6 kPa | 0.8895 ± 0.0009
335.18 K, 4008.4 kPa | 0.8389 ± 0.0008
345.51 K, 185.8 kPa | 0.9943 ± 0.001
345.51 K, 277.2 kPa | 0.991 ± 0.001
345.51 K, 413 kPa | 0.9863 ± 0.001
345.51 K, 613.8 kPa | 0.9794 ± 0.001
345.51 K, 909.5 kPa | 0.9693 ± 0.001
345.51 K, 1340.3 kPa | 0.9543 ± 0.001
345.51 K, 1960.2 kPa | 0.9324 ± 0.0009
345.51 K, 2834.5 kPa | 0.9008 ± 0.0009
345.51 K, 4029 kPa | 0.8553 ± 0.0009
345.58 K, 184.6 kPa | 0.9943 ± 0.001
345.58 K, 275.5 kPa | 0.9911 ± 0.001
345.58 K, 410.4 kPa | 0.9865 ± 0.001
345.58 K, 610.1 kPa | 0.9797 ± 0.001
345.58 K, 903.9 kPa | 0.9697 ± 0.001
345.58 K, 1332.3 kPa | 0.9548 ± 0.001
345.58 K, 1949.3 kPa | 0.9332 ± 0.0009
345.58 K, 2819.4 kPa | 0.9017 ± 0.0009
345.58 K, 4008.9 kPa | 0.8565 ± 0.0009
364.36 K, 207.6 kPa | 0.9928 ± 0.001
364.36 K, 241.7 kPa | 0.9925 ± 0.001
364.36 K, 309.9 kPa | 0.9907 ± 0.001
364.36 K, 360.3 kPa | 0.9889 ± 0.001
364.36 K, 462 kPa | 0.9871 ± 0.001
364.36 K, 536.5 kPa | 0.9843 ± 0.001
364.36 K, 687.1 kPa | 0.9812 ± 0.001
364.36 K, 797.5 kPa | 0.9779 ± 0.001
364.36 K, 1018.5 kPa | 0.9723 ± 0.001
364.36 K, 1179.8 kPa | 0.967 ± 0.001
364.36 K, 1502.7 kPa | 0.9588 ± 0.001
364.36 K, 1737 kPa | 0.9517 ± 0.001
364.36 K, 2201.5 kPa | 0.9389 ± 0.0009
364.36 K, 2535.6 kPa | 0.9285 ± 0.0009
364.36 K, 3191.1 kPa | 0.9097 ± 0.0009
364.36 K, 3655.3 kPa | 0.8947 ± 0.0009
364.36 K, 4555 kPa | 0.8679 ± 0.0009
364.36 K, 5179.9 kPa | 0.8475 ± 0.0008
